Measured values published in ChEMBL document CHEMBL4038286, “Synthesis of camphecene derivatives using click chemistry methodology and study of their antiviral activity” (Bioorg Med Chem Lett, 2017).

Tested on: Influenza A virus
Experiment: Antiviral activity against rimantadine-resistant Influenza A virus (A/Puerto Rico/8/34(H1N1)) infected in MDCK cells
Format: functional, A/Puerto Rico/8/1934(H1N1)
Conditions: read-out: ED50 (the source's name)

SMILES | EC50 [µM]
CCOP(=O)(OCC)C(Cc1cn(CC/N=C2\C[C@H]3CC[C@]2(C)C3(C)C)nn1)P(=O)(OCC)OCC | > 58.4
CC(C)(O)Cc1cn(CC/N=C2\C[C@H]3CC[C@]2(C)C3(C)C)nn1 | 32
COCCNCCc1cn(CC/N=C2\C[C@H]3CC[C@]2(C)C3(C)C)nn1 | 25
CC1(C)[C@@H]2CC[C@@]1(C)/C(=N/CCN=[N+]=[N-])C2 | 455
CC(N)C12CC3CC(CC(C3)C1)C2 (stereo not given) [RIMANTADINE] | 72
CCOC(=O)C(C)(Cc1cn(CC/N=C2\C[C@H]3CC[C@]2(C)C3(C)C)nn1)P(=O)(OCC)OCC (stereo not given in full) | 314
CC1(C)[C@@H]2CC[C@@]1(C)/C(=N/CCn1cc(CO)nn1)C2 | 616
CC1(C)[C@@H]2CC[C@@]1(C)/C(=N/CCOCc1cn(-c3ccccc3)nn1)C2 | 63
CCOP(=O)(CCCCn1cc(COCC/N=C2\C[C@H]3CC[C@]2(C)C3(C)C)nn1)OCC | 299
CC1(C)[C@@H]2CC[C@@]1(C)/C(=N/CCOCc1cn(CCO)nn1)C2 | 50
CNCc1cn(CC/N=C2\C[C@H]3CC[C@]2(C)C3(C)C)nn1 | > 100
NC12CC3CC(CC(C3)C1)C2 [AMANTADINE] | 60
CC1(C)[C@@H]2CC[C@@]1(C)/C(=N/CCn1cc(CCO)nn1)C2 | 55
CC(N)[C@@H]1C[C@H]2CC[C@]1(C)C2 (stereo not given in full) | 181
CC1(C)[C@@H]2CC[C@@]1(C)/C(=N/CCn1cc([Si](C)(C)C)nn1)C2 | > 31
CCCCc1cn(CC/N=C2\C[C@H]3CC[C@]2(C)C3(C)C)nn1 | 56
CC1(C)[C@@H]2CC[C@@]1(C)/C(=N\CCOCc1cn(CC/N=C3\C[C@H]4CC[C@]3(C)C4(C)C)nn1)C2 | 98
CC(C)(C)OC(=O)Cn1cc(COCC/N=C2\C[C@H]3CC[C@]2(C)C3(C)C)nn1 | 24
CC1(C)[C@@H]2CC[C@@]1(C)/C(=N/CCn1cc(CCN3CCOCC3)nn1)C2 | 45
C#CCOCC/N=C1\C[C@H]2CC[C@]1(C)C2(C)C | > 429
